The text below walks through data of paper PMC4994520 (European journal of medicinal chemistry, 2012).

The assay addresses human PDE5 (Homo sapiens, UniProt O76074). The assay can be described thus: PDE5 inhibition, IMAP fluorescence polarization phosphodiesterase assay. It counts as biochemical. As to conditions: for inhibition at 10 µM: read-out: % PDE5 inhibition at 10 μM. Background: In fluorescence polarisation assays a small probe gives low polarisation when free and higher when bound to something large.

In general, inhibition refers to the change of the read-out against control, counted positive when it falls. For the molecule `COC(=O)[C@H]1Cc2c([nH]c3ccccc23)[C@@H](c2ccc(Br)cc2)N1` [Compound 1, Methyl (1R,3R)-1-(4-bromophenyl)-2,3,4,9-tetrahydro-1H-β-carboline-3-carboxylate], the inhibition at 10 µM is 10%. As for `COC(=O)[C@H]1Cc2c([nH]c3ccccc23)[C@H](c2ccc(Br)cc2)N1` [Compound 2, Methyl (1S,3R)-1-(4-bromophenyl)-2,3,4,9-tetrahydro-1H-β-carboline-3-carboxylate], the inhibition at 10 µM stood at 10%.

For `COC(=O)[C@@H]1Cc2c([nH]c3ccccc23)[C@H](c2ccc(Br)cc2)N1` [Compound 3, Methyl (1S,3S)-1-(4-bromophenyl)-2,3,4,9-tetrahydro-1H-β-carboline-3-carboxylate], the inhibition at 10 µM came to 17%. Usually IC50 stands for the midpoint of a concentration-inhibition curve. For the molecule `COC(=O)[C@@H]1Cc2c([nH]c3ccccc23)[C@@H](c2ccc(Br)cc2)N1` [Compound 4, Methyl (1R,3S)-1-(4-bromophenyl)-2,3,4,9-tetrahydro-1H-β-carboline-3-carboxylate], the IC50 was found to be 4200 nM and the inhibition at 10 µM stood at 75%. Regarding `CCN1C(=O)[C@H]2Cc3c([nH]c4ccccc34)[C@@H](c3ccc(Br)cc3)N2C1=O` [Compound 5, (5R,11aR)-5-(4-Bromophenyl)-2-ethyl-5,6,11,11a-tetrahydro-1H-imidazo[1′,5′:1,6]pyrido[3,4-b]indole-1,3(2H)-dione], the 50% inhibitory concentration (IC50) amounted to 2800 nM and the inhibition at 10 µM came out at 94.4%. For the molecule `CCN1C(=O)[C@H]2Cc3c([nH]c4ccccc34)[C@H](c3ccc(Br)cc3)N2C1=O` [Compound 6, (5S,11aR)-5-(4-Bromophenyl)-2-ethyl-5,6,11,11a-tetrahydro-1H-imidazo[1′,5′:1,6]pyrido[3,4-b]indole-1,3(2H)-dione], half-maximal inhibition (IC50) was put at 3900 nM and the inhibition at 10 µM came to 89.3%. Regarding `CCN1C(=O)[C@@H]2Cc3c([nH]c4ccccc34)[C@H](c3ccc(Br)cc3)N2C1=O` [Compound 7, (5S,11aS)-5-(4-Bromophenyl)-2-ethyl-5,6,11,11a-tetrahydro-1H-imidazo[1′,5′:1,6]pyrido[3,4-b]indole-1,3(2H)-dione], the inhibition at 10 µM amounted to 79.8%. In the case of `CCCCN1C(=O)[C@H]2Cc3c([nH]c4ccccc34)[C@@H](c3ccc(Br)cc3)N2C1=O` [Compound 9, (5R,11aR)-5-(4-Bromophenyl)-2-butyl-5,6,11,11a-tetrahydro-1H-imidazo[1′,5′:1,6]pyrido[3,4-b]indole-1,3(2H)-dione], inhibition was half-maximal at 230 nM (IC50) and the inhibition at 10 µM is 98.7%. The matching figures for `CCCCN1C(=O)[C@H]2Cc3c([nH]c4ccccc34)[C@H](c3ccc(Br)cc3)N2C1=O` [Compound 10, (5S,11aR)-5-(4-Bromophenyl)-2-butyl-5,6,11,11a-tetrahydro-1H-imidazo[1′,5′:1,6]pyrido[3,4-b]indole-1,3(2H)-dione]: greater than 10000 nM and 72.1%. Taken in the same sequence, the figures for `CCCCN1C(=O)[C@@H]2Cc3c([nH]c4ccccc34)[C@H](c3ccc(Br)cc3)N2C1=O` [Compound 11, (5S,11aS)-5-(4-Bromophenyl)-2-butyl-5,6,11,11a-tetrahydro-1H-imidazo[1′,5′:1,6]pyrido[3,4-b]indole-1,3(2H)-dione] were greater than 10000 nM and 81.5%.

With `CCCCN1C(=O)[C@@H]2Cc3c([nH]c4ccccc34)[C@@H](c3ccc(Br)cc3)N2C1=O` [Compound 12, (5R,11aS)-5-(4-Bromophenyl)-2-butyl-5,6,11,11a-tetrahydro-1H-imidazo[1′,5′:1,6]pyrido[3,4-b]indole-1,3(2H)-dione], the inhibition at 10 µM stood at 106%.

Regarding `CCC(C)N1C(=O)[C@H]2Cc3c([nH]c4ccccc34)[C@@H](c3ccc(Br)cc3)N2C1=O` (stereo partly drawn) [Compound 13, (5R,11aR)-5-(4-Bromophenyl)-2-sec-butyl-5,6,11,11a-tetrahydro-1H-imidazo[1′,5′:1,6]pyrido[3,4-b]indole-1,3(2H)-dione], the IC50 turned out to be 370 nM and the inhibition at 10 µM came out at 83%. The matching figures for `CCC(C)N1C(=O)[C@H]2Cc3c([nH]c4ccccc34)[C@H](c3ccc(Br)cc3)N2C1=O` (stereo partly drawn) [Compound 14, (5S,11aR)-5-(4-Bromophenyl)-2-sec-butyl-5,6,11,11a-tetrahydro-1H-imidazo[1′,5′:1,6]pyrido[3,4-b]indole-1,3(2H)-dione]: 6000 nM and 67%.

Take `CCC(C)N1C(=O)[C@@H]2Cc3c([nH]c4ccccc34)[C@H](c3ccc(Br)cc3)N2C1=O` (stereo partly drawn) [Compound 15, (5S,11aS)-5-(4-Bromophenyl)-2-sec-butyl-5,6,11,11a-tetrahydro-1H-imidazo[1′,5′:1,6]pyrido[3,4-b]indole-1,3(2H)-dione]: half-maximal inhibition (IC50) was put at 3300 nM and the inhibition at 10 µM came to 72%. Taken in the same sequence, the figures for `CCC(C)N1C(=O)[C@@H]2Cc3c([nH]c4ccccc34)[C@@H](c3ccc(Br)cc3)N2C1=O` (stereo partly drawn) [Compound 16, (5R,11aS)-5-(4-Bromophenyl)-2-sec-butyl-5,6,11,11a-tetrahydro-1H-imidazo[1′,5′:1,6]pyrido[3,4-b]indole-1,3(2H)-dione] were 150 nM and 92%. The matching figures for `CC(C)(C)N1C(=O)[C@H]2Cc3c([nH]c4ccccc34)[C@@H](c3ccc(Br)cc3)N2C1=O` [Compound 17, (5R,11aR)-5-(4-Bromophenyl)-2-tert-butyl-5,6,11,11a-tetrahydro-1H-imidazo[1′,5′:1,6]pyrido[3,4-b]indole-1,3(2H)-dione]: 270 nM and 91%. In the case of `CC(C)(C)N1C(=O)[C@H]2Cc3c([nH]c4ccccc34)[C@H](c3ccc(Br)cc3)N2C1=O` [Compound 18, (5S,11aR)-5-(4-Bromophenyl)-2-tert-butyl-5,6,11,11a-tetrahydro-1H-imidazo[1′,5′:1,6]pyrido[3,4-b]indole-1,3(2H)-dione], the midpoint of inhibition, the IC50, lay at 2200 nM and the inhibition at 10 µM stood at 78%. In the case of `CC(C)(C)N1C(=O)[C@@H]2Cc3c([nH]c4ccccc34)[C@H](c3ccc(Br)cc3)N2C1=O` [Compound 19, (5S,11aS)-5-(4-Bromophenyl)-2-tert-butyl-5-(4-bromophenyl)-5,6,11,11a-tetrahydro-1H-imidazo[1′,5′:1,6]pyrido[3,4-b]indole-1,3(2H)-dione], for the setting “10 μM, triplicate”, the “% PDE5 inhibition at 10 μM” value amounted to 38%. For `CC(C)(C)N1C(=O)[C@@H]2Cc3c([nH]c4ccccc34)[C@@H](c3ccc(Br)cc3)N2C1=O` [Compound 20, (5R,11aS)-5-(4-Bromophenyl)-2-tert-butyl-5,6,11,11a-tetrahydro-1H-imidazo[1′,5′:1,6]pyrido[3,4-b]indole-1,3(2H)-dione], the midpoint of inhibition, the IC50, lay at 270 nM and the inhibition at 10 µM came to 94%.

Regarding `COC(=O)[C@H]1Cc2c([nH]c3ccccc23)[C@@H](c2ccc(Br)cc2)N1C(=O)CCl` [Compound 21, Methyl (1R,3R)-1-(4-bromophenyl)-2-(chloroacetyl)-2,3,4,9-tetrahydro-1H-β-carboline-3-carboxylate], the concentration for half-maximal inhibition (IC50) is greater than 10000 nM and the inhibition at 10 µM is 25%.

On to `COC(=O)[C@@H]1Cc2c([nH]c3ccccc23)[C@H](c2ccc(Br)cc2)N1C(=O)CCl` [Compound 23, Methyl (1S,3S)-1-(4-bromophenyl)-2-(2-chloroacetyl)-2,3,4,9-tetrahydro-1H-β-carboline-3-carboxylate], for which the IC50 was greater than 10000 nM and the inhibition at 10 µM came out at 19%. The matching figures for `CN1CC(=O)N2[C@@H](c3ccc(Br)cc3)c3[nH]c4ccccc4c3C[C@@H]2C1=O` [Compound 26, (6S,12aR)-6-(4-Bromophenyl)-2-methyl-2,3,6,7,12,12a-hexahydropyrazino [1′,2′:1,6]pyrido[3,4-b]indole-1,4-dione]: 6600 nM and 94%. For the molecule `CN1CC(=O)N2[C@@H](c3ccc(Br)cc3)c3[nH]c4ccccc4c3C[C@H]2C1=O` [Compound 27, (6S,12aS)-6-(4-Bromophenyl)-2-methyl-2,3,6,7,12,12a-hexahydropyrazino [1′,2′:1,6]pyrido[3,4-b]indole-1,4-dione], inhibition was half-maximal at 1900 nM (IC50) and the inhibition at 10 µM came out at 87%. Taken in the same sequence, the figures for `CCN1CC(=O)N2[C@@H](c3ccc(Br)cc3)c3[nH]c4ccccc4c3C[C@@H]2C1=O` [Compound 30, (6S,12aR)-2-Ethyl-6-(4-bromophenyl)-2,3,6,7,12,12a-hexahydropyrazino [1′,2′:1,6]pyrido[3,4-b]indole-1,4-dione] were 1900 nM and 97.9%. With `CCN1CC(=O)N2[C@@H](c3ccc(Br)cc3)c3[nH]c4ccccc4c3C[C@H]2C1=O` [Compound 31, (6S,12aS)-2-Ethyl-6-(4-bromophenyl)-2,3,6,7,12,12a-hexahydropyrazino [1′,2′:1,6]pyrido[3,4-b]indole-1,4-dione], 220 nM corresponded to half-maximal inhibition (IC50) and the inhibition at 10 µM was 83%. For the molecule `CCN1CC(=O)N2[C@H](c3ccc(Br)cc3)c3[nH]c4ccccc4c3C[C@H]2C1=O` [Compound 32, (6R,12aS)-2-Ethyl-6-(4-bromophenyl)-2,3,6,7,12,12a-hexahydropyrazino [1′,2′:1,6]pyrido[3,4-b]indole-1,4-dione], the IC50 is less than 10 nM and the inhibition at 10 µM was 98.7%. Take `CCCCN1CC(=O)N2[C@@H](c3ccc(Br)cc3)c3[nH]c4ccccc4c3C[C@@H]2C1=O` [Compound 34, (6S,12aR)-2-Butyl-6-(4-bromophenyl)-2,3,6,7,12,12a-hexahydropyrazino [1′,2′:1,6]pyrido[3,4-b]indole-1,4-dione]: half-maximal inhibition (IC50) was put at 6600 nM and the inhibition at 10 µM was 81.5%. Taken in the same sequence, the figures for `CCCCN1CC(=O)N2[C@@H](c3ccc(Br)cc3)c3[nH]c4ccccc4c3C[C@H]2C1=O` [Compound 35, (6S,12aS)-2-Butyl-6-(4-bromophenyl)-2,3,6,7,12,12a-hexahydropyrazino[1′,2′:1,6]pyrido[3,4-b]indole-1,4-dione] were 5900 nM and 80%.

As for `CCCCN1CC(=O)N2[C@H](c3ccc(Br)cc3)c3[nH]c4ccccc4c3C[C@H]2C1=O` [Compound 36, (6R,12aS)-2-Butyl-6-(4-bromophenyl)-2,3,6,7,12,12a-hexahydropyrazino [1′,2′:1,6]pyrido[3,4-b]indole-1,4-dione], the inhibition at 10 µM was 92%.
